In patent US6544996B2, “1-phenyl-4-(1-[2-aryl]cyclopropyl) methylpiperazines: dopamine receptor ligands” (Neurogen Corporation, priority 1999, dated 2003):

Columns and labels:
[1] = molecular target: T1, recombinantly produced D2 receptors from human (COS cells) (Homo sapiens, UniProt P14416); assay: biochemical; type: binding; conditions: COS cell pellets, 0.5 nM 3H-YM 09151-2
T1 construct: expressed in transfected cells; host or cells: COS cells
Method: (§1) Pellets of COS cells containing recombinantly produced D2 or D4 receptors from human are used for the assays. The sample is homogenized in 100 volumes (w/vol) of 0.05 M Tris HCl buffer at 4° C. and pH 7.4. The sample is then centrifuged at 30,000×g and resuspended and rehomogenized. The sample is then centrifuged as described and the final tissue sample is frozen until use. The tissue is resuspended […] (wt/vol) in 0.05 M Tris HCl buffer containing 100 mM NaCl.

[2] = molecular target: T2, recombinantly produced D4 receptors from human (COS cells) (Homo sapiens, UniProt P21917); assay: Determination of D4 receptor binding activity (3H-YM 09151-2 displacement)
T2 construct: expressed in transfected cells; host or cells: COS cells
T2 sequence (P21917 1-419): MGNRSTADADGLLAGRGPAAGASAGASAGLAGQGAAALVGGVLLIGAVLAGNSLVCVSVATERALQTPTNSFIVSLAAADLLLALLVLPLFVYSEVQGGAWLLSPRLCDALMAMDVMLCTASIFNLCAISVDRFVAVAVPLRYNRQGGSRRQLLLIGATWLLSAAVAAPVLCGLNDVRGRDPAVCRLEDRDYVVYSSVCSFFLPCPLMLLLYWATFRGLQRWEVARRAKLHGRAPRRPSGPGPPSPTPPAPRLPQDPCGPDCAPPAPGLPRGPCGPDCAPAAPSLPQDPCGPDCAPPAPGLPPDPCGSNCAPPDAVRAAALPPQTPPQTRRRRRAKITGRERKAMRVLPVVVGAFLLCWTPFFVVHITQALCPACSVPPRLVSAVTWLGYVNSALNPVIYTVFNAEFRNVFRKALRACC
Method: as §1

T1 sequence (P14416 whole entry): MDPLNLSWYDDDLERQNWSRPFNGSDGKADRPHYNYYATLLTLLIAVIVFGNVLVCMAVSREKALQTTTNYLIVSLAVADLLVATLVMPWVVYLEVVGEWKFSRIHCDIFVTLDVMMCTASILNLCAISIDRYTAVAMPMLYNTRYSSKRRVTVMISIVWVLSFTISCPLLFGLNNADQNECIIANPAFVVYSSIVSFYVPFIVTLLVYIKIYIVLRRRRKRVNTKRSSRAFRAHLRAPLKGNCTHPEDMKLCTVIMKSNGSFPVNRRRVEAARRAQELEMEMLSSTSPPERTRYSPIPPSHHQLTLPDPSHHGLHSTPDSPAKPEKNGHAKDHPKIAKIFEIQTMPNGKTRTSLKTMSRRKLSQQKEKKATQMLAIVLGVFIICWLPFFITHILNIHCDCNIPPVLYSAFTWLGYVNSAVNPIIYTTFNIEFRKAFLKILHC

melting point [°C] | Compound | Ki [1] [µM] | Ki [2] [µM]
182 to 183 | Br.Cc1cc(Br)ccc1N1CCN(C[C@@H]2C[C@H]2c2ccccc2)CC1 (relative stereo) | – | –
197 to 198 | Br.Cc1cc([N+](=O)[O-])ccc1N1CCN(C[C@@H]2C[C@H]2c2ccccc2)CC1 (relative stereo) | – | –
284 to 285 | Br.Cc1cc(N)ccc1N1CCN(C[C@@H]2C[C@H]2c2ccccc2)CC1 (relative stereo) | – | –
– | Clc1ccc([C@H]2C[C@@H]2CN2CCN(c3ccc(Cl)cc3)CC2)cc1 (relative stereo) [Compound 3, 1-(4-chlorophenyl)-4-(trans-2-[4-chlorophenyl]cyclopropyl)methylpiperazine] | 0.523 | 0.008
